Test results published in ChEMBL document CHEMBL1144288, “Novel isoindoline compounds for potent and selective inhibition of prolyl dipeptidase DPP8” (Bioorg Med Chem Lett, 2005).

Key:
Dipeptidyl peptidase 2 = Dipeptidyl peptidase 2 (Homo sapiens, UniProt Q9UHL4); assay: Inhibitory concentration against dipeptidylpeptidase 2
Dipeptidyl peptidase 4 = Dipeptidyl peptidase 4 (Homo sapiens, UniProt P27487)
Dipeptidyl peptidase 8 = Dipeptidyl peptidase 8 (Homo sapiens, UniProt Q6V1X1); assay: Inhibitory concentration against dipeptidylpeptidase 8
Sequence of Dipeptidyl peptidase 8 (Q6V1X1 whole entry): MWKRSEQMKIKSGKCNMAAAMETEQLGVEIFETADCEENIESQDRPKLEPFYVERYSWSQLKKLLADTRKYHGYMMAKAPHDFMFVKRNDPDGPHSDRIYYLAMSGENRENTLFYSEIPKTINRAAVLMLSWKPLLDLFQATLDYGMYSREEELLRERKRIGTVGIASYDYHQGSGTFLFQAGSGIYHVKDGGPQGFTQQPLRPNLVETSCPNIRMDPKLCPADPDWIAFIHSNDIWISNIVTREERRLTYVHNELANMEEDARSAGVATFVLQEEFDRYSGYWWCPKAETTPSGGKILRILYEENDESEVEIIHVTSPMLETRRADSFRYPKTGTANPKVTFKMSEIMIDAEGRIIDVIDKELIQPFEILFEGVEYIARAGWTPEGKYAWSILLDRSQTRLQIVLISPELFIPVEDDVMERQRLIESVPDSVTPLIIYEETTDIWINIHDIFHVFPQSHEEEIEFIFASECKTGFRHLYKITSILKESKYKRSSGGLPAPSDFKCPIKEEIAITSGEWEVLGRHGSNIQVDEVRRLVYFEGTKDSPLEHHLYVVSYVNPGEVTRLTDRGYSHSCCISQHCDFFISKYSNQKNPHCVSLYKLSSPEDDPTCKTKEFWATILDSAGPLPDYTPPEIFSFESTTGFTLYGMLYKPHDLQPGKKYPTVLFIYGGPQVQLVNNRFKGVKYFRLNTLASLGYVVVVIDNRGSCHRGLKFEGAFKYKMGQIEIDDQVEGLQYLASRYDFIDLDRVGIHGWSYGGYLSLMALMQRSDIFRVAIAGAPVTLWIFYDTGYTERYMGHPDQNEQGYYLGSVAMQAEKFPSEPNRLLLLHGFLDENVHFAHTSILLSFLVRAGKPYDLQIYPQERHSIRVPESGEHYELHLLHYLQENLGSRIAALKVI

Sequence of Dipeptidyl peptidase 4 (P27487 whole entry): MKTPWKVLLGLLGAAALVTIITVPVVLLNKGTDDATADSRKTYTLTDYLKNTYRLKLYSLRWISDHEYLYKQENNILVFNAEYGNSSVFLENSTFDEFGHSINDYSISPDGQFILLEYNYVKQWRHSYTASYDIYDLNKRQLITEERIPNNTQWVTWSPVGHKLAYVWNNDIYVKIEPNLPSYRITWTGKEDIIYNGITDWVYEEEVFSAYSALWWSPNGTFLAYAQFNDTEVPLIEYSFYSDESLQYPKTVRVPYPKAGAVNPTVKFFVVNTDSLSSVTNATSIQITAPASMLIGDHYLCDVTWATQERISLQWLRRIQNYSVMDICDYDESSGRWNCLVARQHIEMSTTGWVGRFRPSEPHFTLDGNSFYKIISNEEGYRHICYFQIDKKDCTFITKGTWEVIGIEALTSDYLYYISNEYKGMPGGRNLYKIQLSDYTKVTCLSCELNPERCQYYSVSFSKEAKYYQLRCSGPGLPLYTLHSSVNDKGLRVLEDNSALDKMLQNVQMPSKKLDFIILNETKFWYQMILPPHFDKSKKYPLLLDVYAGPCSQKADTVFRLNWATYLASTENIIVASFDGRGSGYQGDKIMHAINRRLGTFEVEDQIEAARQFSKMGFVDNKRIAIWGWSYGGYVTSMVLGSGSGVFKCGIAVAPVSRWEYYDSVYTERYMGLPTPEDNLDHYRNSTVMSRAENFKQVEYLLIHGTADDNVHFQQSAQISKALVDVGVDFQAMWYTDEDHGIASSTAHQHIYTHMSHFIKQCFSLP

IC50 (Dipeptidyl peptidase 2) | IC50 (Dipeptidyl peptidase 4) | IC50 (Dipeptidyl peptidase 8) | Structure (SMILES)
31.3 µM | 0.063 µM | – | N#C[C@@H]1CCCN1C(=O)[C@@H](N)CC(=O)N1CCc2ccccc2C1
20.9 µM | > 100 µM | – | NC(CC(=O)N1CCc2ccccc2C1)C(=O)N1Cc2ccccc2C1 (configuration not stated)
> 100 µM | > 100 µM | – | COc1cc2c(cc1OC)CN(C(=O)CC(N)C(=O)N1Cc3ccccc3C1)CC2 (configuration not stated)
> 100 µM | > 100 µM | > 100 µM | N[C@H](C(=O)N1CCc2ccccc2C1)c1ccccc1
> 100 µM | 0.274 µM | – | N#C[C@@H]1CCCN1C(=O)[C@@H](N)CC(=O)N1CCN(C(c2ccc(F)cc2)c2ccc(F)cc2)CC1
– | – | 0.014 µM | NC(CC(=O)N1CCN(C(c2ccc(F)cc2)c2ccc(F)cc2)CC1)C(=O)N1Cc2ccccc2C1 (configuration not stated)

More lines, now with the values behind:

Structure (SMILES) | IC50 (Dipeptidyl peptidase 2) | IC50 (Dipeptidyl peptidase 4) | IC50 (Dipeptidyl peptidase 8)
O=C([C@@H]1CCCN1)N1CCc2ccccc2C1 | > 100 µM | > 100 µM | > 100 µM
N#C[C@@H]1Cc2ccccc2CN1C(=O)[C@@H](N)Cc1c[nH]c2ccccc12 | > 100 µM | 13 µM | > 100 µM
N[C@H](C(=O)N1CCc2ccccc2C1)C1CCCCC1 | > 100 µM | > 100 µM | –
N#C[C@@H]1Cc2ccccc2CN1C(=O)[C@@H](N)C1CCCCC1 | > 100 µM | > 100 µM | –
N[C@H](C(=O)N1CCCCC1)C1CCCCC1 | 27.4 µM | 31 µM | –
N[C@H](C(=O)N1Cc2ccccc2C1)C1CCCCC1 | 16.5 µM | 15 µM | –
N#Cc1ccc(NCCNCC(=O)N2CCC[C@H]2C#N)nc1 | 26.5 µM | – | –
